Among the test systems are HOP-92 NSCLC; OVCAR-3 ovarian; TK-10 renal; OVCAR-4 ovarian; MCF7 breast; NCI-H460 lung; T-47D breast; NCI-H226 lung; UACC-62 melanoma; MALME-3M melanoma; SK-MEL-2 melanoma; RXF 393 renal; RPMI-8226 leukemia; MOLT-4 leukemia; NCI/ADR-RES ovarian; K-562 leukemia; SNB-75 CNS; SN12C renal; CCRF-CEM leukemia; MDA-MB-435.
Common to all, as to test: growth of human tumour cells (NCI), 48 h

The values that follow come from PubChem BioAssay (NCI).

Each structure is given as a SMILES string.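 Cultured in 96-well plates, cells were exposed to test compound for 48 hours across five concentrations. TGI marks complete inhibition of growth.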 A value given as a limit tells only on which side of the number the result lay.

Regarding `CC(C)NC(=O)OCc1c2c(n(C)c1COC(=O)NC(C)C)-c1cc(Cl)c(Cl)cc1CC2`, the TGI in the assay with HOP-92 NSCLC was 70.9 µM; in the assay on OVCAR-3 ovarian, 82.8 µM; with TK-10 renal, 84.5 µM; in the assay with OVCAR-4 ovarian, greater than 100 µM; in the assay with MCF7 breast, 45.2 µM; with NCI-H460 lung, greater than 100 µM. In addition, the TGI in the assay on T-47D breast was greater than 100 µM; with NCI-H226 lung, greater than 100 µM; in the assay with UACC-62 melanoma, greater than 100 µM; in the assay with MALME-3M melanoma, greater than 100 µM; in the assay on SK-MEL-2 melanoma, 72.8 µM; in the assay on RXF 393 renal it was 94.8 µM. Further, the TGI is 64.8 µM with RPMI-8226 leukemia; 60.3 µM in the assay with MOLT-4 leukemia; greater than 100 µM in the assay with NCI/ADR-RES ovarian; 41.6 µM in the assay with K-562 leukemia; 81.7 µM in the assay on SNB-75 CNS; greater than 100 µM in the assay on SN12C renal. Besides, the TGI in the assay with CCRF-CEM leukemia is 65.6 µM; in the assay with MDA-MB-435, greater than 100 µM.
Turning to `CCOC(=O)/C=C(\C(=O)OCC)n1cc(C)c(=O)n(Cc2cn(CCCCOC(C)=O)nn2)c1=O`, the TGI came out at 4.7 µM with HOP-92 NSCLC; 31.5 µM with OVCAR-3 ovarian; 18.5 µM with TK-10 renal; 53.1 µM with OVCAR-4 ovarian; 24.8 µM in the assay with MCF7 breast; 26 µM with NCI-H460 lung. Moreover, the TGI was greater than 47.5 µM in the assay on T-47D breast; 17.1 µM in the assay with NCI-H226 lung; 29.9 µM in the assay with UACC-62 melanoma; 4.16 µM with MALME-3M melanoma; 36.4 µM in the assay with SK-MEL-2 melanoma; 7.5 µM in the assay on RXF 393 renal. Moreover, the TGI with RPMI-8226 leukemia is 21.7 µM; with MOLT-4 leukemia, 11.6 µM; in the assay with NCI/ADR-RES ovarian it was 57 µM; in the assay with K-562 leukemia it was 9.01 µM; in the assay on SNB-75 CNS, 30.3 µM; in the assay on SN12C renal it was greater than 56.7 µM. Further, the TGI in the assay with CCRF-CEM leukemia was 5.58 µM; in the assay with MDA-MB-435, 28.6 µM.
With `O=C(O)c1c2c(cc3c1CC(Cc1ccccc1)C3=O)CCC2` (stereo not given), the TGI in the assay with HOP-92 NSCLC, with OVCAR-3 ovarian, in the assay with TK-10 renal, with OVCAR-4 ovarian, with MCF7 breast and in the assay with NCI-H460 lung was greater than 100 µM each time. Besides, the TGI with T-47D breast, with NCI-H226 lung, with UACC-62 melanoma, with MALME-3M melanoma, in the assay on SK-MEL-2 melanoma and in the assay on RXF 393 renal was greater than 100 µM in each case. Moreover, the TGI in the assay with RPMI-8226 leukemia, with MOLT-4 leukemia, in the assay on NCI/ADR-RES ovarian, in the assay with K-562 leukemia, in the assay with SNB-75 CNS and in the assay on SN12C renal was greater than 100 µM throughout. Also, the TGI in the assay on CCRF-CEM leukemia and in the assay with MDA-MB-435 was greater than 100 µM each time.
On to `OC(CNc1ccccn1)c1ccccc1` (stereo not given), for which the TGI with HOP-92 NSCLC, in the assay with OVCAR-3 ovarian, with TK-10 renal, in the assay with OVCAR-4 ovarian, in the assay on MCF7 breast and with NCI-H460 lung was greater than 100 µM in each case. The TGI in the assay with T-47D breast, in the assay with NCI-H226 lung, in the assay on UACC-62 melanoma, in the assay on MALME-3M melanoma, with SK-MEL-2 melanoma and in the assay on RXF 393 renal was greater than 100 µM each time. The TGI with RPMI-8226 leukemia, in the assay on MOLT-4 leukemia, in the assay on NCI/ADR-RES ovarian, with K-562 leukemia, in the assay on SNB-75 CNS and with SN12C renal was greater than 100 µM throughout. The TGI with CCRF-CEM leukemia and in the assay on MDA-MB-435 was greater than 100 µM in each case.
For `COC(=O)C1=C(OC(=O)/C(=C/c2ccccc2)c2ccc(Cl)cc2Cl)C(C(=O)OC)[C@@]2(O)[C@@H](C(=O)OC)[C@H](C)C[C@@H]1[C@@H]2C(=O)OC` (stereo not given in full), the TGI in the assay with HOP-92 NSCLC, in the assay on OVCAR-3 ovarian, in the assay with TK-10 renal, with OVCAR-4 ovarian, with MCF7 breast and with NCI-H460 lung was greater than 100 µM in each case. The TGI in the assay with T-47D breast, with NCI-H226 lung, with UACC-62 melanoma, in the assay with MALME-3M melanoma, with SK-MEL-2 melanoma and with RXF 393 renal was greater than 100 µM in each case. Besides, the TGI with RPMI-8226 leukemia, in the assay on MOLT-4 leukemia, in the assay on NCI/ADR-RES ovarian, in the assay with K-562 leukemia, with SNB-75 CNS and with SN12C renal was greater than 100 µM throughout. Further, the TGI with CCRF-CEM leukemia and in the assay on MDA-MB-435 was greater than 100 µM each time.
On to `NC(N)=NS(=O)(=O)c1ccc(NNc2c3ccccc3nc3ccccc23)cc1`, for which the TGI with HOP-92 NSCLC was found to be 31.5 µM; with OVCAR-3 ovarian it was 15.7 µM; with TK-10 renal, 42.7 µM; in the assay on OVCAR-4 ovarian, 21.7 µM; in the assay on MCF7 breast, 16.8 µM; in the assay on NCI-H460 lung, 23.4 µM. Besides, the TGI with T-47D breast is 41.9 µM; with NCI-H226 lung, 20.5 µM; in the assay with UACC-62 melanoma, 35.3 µM; in the assay on MALME-3M melanoma, 32.8 µM; in the assay on SK-MEL-2 melanoma, 37.1 µM; in the assay with RXF 393 renal, 36 µM. Further, the TGI in the assay on RPMI-8226 leukemia is 44.9 µM; with MOLT-4 leukemia it was 2.85 µM; in the assay with NCI/ADR-RES ovarian, 90.7 µM; in the assay on K-562 leukemia, 30.9 µM; in the assay on SNB-75 CNS, 50.3 µM; with SN12C renal, 35.6 µM. Also, the TGI turned out to be 25.4 µM in the assay on CCRF-CEM leukemia and 33.9 µM in the assay on MDA-MB-435.
